# From patent publication US20200197355A1, “METHODS, COMPOSITIONS AND CONTAINERS FOR REDUCING SOLID FORM QUERCETIN DEGRADATION AND 2-(3,4-DIHYDROXYBENZOYLOXY)-4,6-DIHYDROXYBENZOIC ACID TOXIC BYPRODUCTS THEREOF” (PUBLIC JOINT STOCK COMPANY "SCIENTIFICINDUSTRIALCENTRE …, priority 2018, published 2020)
# Columns and labels:
# [1] = test system: MDA-MB231 human breast cancer cells; experiment: Toxicity of DB-DBA, CellTiter 96 AQueous One Solution cell viability assay, 72 h; format: cell-based; settings: Homo sapiens, MDA-MB-231; MDA-MB231, 72 h, 37° C.
# Protocol: (§1) Toxicity of DB-DBA (2-(3,4-dihydroxybenzoyloxy)-4,6-dihydroxybenzoic acid) was assessed in 96-well plates (Thermofisher, Walthman, Mass.) on 1×10^3 MDA-MB231 human breast cancer cells/well. DB-DBA was diluted to concentrations from 500 to 20 ug/ml. The plate was incubated at 37° C. for 72 h. Cell viability was measured in a CellTiter 96® AQueous One Solution Cell Proliferation Assay (Promega, Madison, Wis.), according to the manufacturer's protocol.
# [2] = as above; format: cell-based, human; settings: human, MDA-MB231 breast cancer cells, 72 h
# Protocol: as §1
# [3] = test system: human lymphoblastoid TK6 cells; settings: cited from earlier work
# [4] = test system: human lymphoblastoid cell line K562; settings: cited from earlier work
# [5] = test system: human lymphoblastoid TK6 cells; settings: cited from earlier work; remark: listed apart in the source
# [6] = test system: retinal pigmented epithelial cells (ARPE-19); settings: cited from earlier work
# [7] = humans, cited from earlier work
smiles,measurement,setting,value
"O=C(Oc1cc(O)cc(O)c1C(=O)O)c1ccc(O)c(O)c1 [DB-DBA, 2-(3,4-dihydroxybenzoyloxy)-4,6-dihydroxybenzoic acid]",IC50,[1],75 µg/mL
same,"viability at 72 h, 20 microgram/ml",[2]; DB-DBA 20 microgram/ml,95%
same,"viability at 72 h, 50 microgram/ml",[2]; DB-DBA 50 microgram/ml,62%
same,"viability at 72 h, 100 microgram/ml",[2]; DB-DBA 100 microgram/ml,41%
same,"viability at 72 h, 250 microgram/ml",[2]; DB-DBA 250 microgram/ml,19%
same,"viability at 72 h, 500 microgram/ml",[2]; DB-DBA 500 microgram/ml,10%
"O=C(O)c1cc(O)c(O)c(OC(=O)c2cc(O)c(O)c(O)c2)c1 [DGA, Digallic acid]","concentrations causing DNA fragmentation, caspase-3/8 activation and PARP cleavage",[3],2.5-10 microgram/ml
same,concentrations causing DNA fragmentation,[4],200-800 microgram/ml
same,IC50 by MTT assay,[5],8.5 microgram/ml
same,IC50 (cytotoxicity),[6],47 microgram/ml
"O=c1c(O)c(-c2ccc(O)c(O)c2)oc2cc(O)cc(O)c12 [quercetin, 2-(3,4-dihydroxyphenyl)-3,5,7-trihydroxy-4H-chromen-4-one]",elimination half-life,[7]; after ingestion in foods or supplements,1 to 2 h
same,bioavailability,[7],0-50%
